Test results: article PMC6470557, “Synthesis of New GABAA Receptor Modulator with Pyrazolo[1,5-a]quinazoline (PQ) Scaffold” (International Journal of Molecular Sciences, 2019)
One block for each compound: values may come before it.

Columns and labels:
Format in all cases: cell-based
[1] = biological target: T1, α1β2γ2L GABAA receptor (α1 subunit) (Homo sapiens, UniProt P14867+P18507); assay: two-electrode voltage clamp of GABA currents in oocytes; also […] [3H]flumazenil displacement at […] in bovine membranes
T1 construct: gene GABRA1; recombinant α1β2γ2L receptor in Xenopus laevis oocytes; with GABAA receptor β2 (GABRB2) and γ2L (GABRG2) subunits

[2] = biological target: T2, α1β2 GABAA receptor (α1 subunit) (Homo sapiens, UniProt P14867+P47870); assay: voltage clamp: reduction of CGS […] potentiation (data not shown); […] [3H]flumazenil displacement at […] in bovine membranes
T2 construct: gene GABRA1; recombinant α1β2 receptor (devoid of the γ subunit) in Xenopus laevis oocytes; with GABAA receptor β2 subunit (GABRB2)
T2 sequence (P14867 28-456): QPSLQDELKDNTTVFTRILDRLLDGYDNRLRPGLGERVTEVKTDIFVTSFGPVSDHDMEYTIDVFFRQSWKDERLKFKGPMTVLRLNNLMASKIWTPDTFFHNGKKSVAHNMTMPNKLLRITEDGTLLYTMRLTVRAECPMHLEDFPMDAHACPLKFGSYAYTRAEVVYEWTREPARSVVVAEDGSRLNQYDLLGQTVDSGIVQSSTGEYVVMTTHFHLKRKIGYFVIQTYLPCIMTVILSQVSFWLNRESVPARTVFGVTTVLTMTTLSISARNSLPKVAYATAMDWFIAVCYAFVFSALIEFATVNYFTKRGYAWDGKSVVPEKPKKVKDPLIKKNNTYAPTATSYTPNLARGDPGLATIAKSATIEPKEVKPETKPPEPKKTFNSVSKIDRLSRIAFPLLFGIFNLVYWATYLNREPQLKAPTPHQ
T2 sequence (P47870 26-512): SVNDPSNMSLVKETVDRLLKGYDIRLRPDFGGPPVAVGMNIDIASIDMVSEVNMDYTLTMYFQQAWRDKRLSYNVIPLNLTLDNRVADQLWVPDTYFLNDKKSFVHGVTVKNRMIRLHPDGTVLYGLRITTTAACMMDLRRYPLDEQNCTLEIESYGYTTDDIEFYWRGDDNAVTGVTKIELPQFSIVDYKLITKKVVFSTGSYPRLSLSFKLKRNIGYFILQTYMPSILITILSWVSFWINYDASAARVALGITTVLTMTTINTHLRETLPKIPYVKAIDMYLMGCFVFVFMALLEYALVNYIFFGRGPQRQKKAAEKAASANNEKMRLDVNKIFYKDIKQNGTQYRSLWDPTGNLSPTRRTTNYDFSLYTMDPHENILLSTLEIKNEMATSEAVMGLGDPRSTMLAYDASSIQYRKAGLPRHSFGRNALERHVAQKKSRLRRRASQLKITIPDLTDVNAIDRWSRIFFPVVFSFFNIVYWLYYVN

[3] = biological target: T2, α1β2 GABAA receptor (α1 subunit); assay: voltage clamp: block of CGS […] potentiation (data not shown); […] [3H]flumazenil displacement at […] in bovine membranes

T1 sequence (P18507 40-475, one chain of several): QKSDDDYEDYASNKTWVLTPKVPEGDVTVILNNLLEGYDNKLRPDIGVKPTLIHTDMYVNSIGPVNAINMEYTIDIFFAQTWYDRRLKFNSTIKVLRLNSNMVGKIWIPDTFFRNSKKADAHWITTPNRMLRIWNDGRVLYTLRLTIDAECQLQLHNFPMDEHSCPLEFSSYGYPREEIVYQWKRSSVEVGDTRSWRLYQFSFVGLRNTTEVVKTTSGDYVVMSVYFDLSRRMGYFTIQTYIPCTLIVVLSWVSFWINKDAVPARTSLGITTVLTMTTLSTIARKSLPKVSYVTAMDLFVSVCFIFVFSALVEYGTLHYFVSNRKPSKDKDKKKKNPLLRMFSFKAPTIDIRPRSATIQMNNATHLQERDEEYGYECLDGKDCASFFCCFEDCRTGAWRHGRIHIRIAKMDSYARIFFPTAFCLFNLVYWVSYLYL

EC50 [1]: 12 µM
SMILES: COc1ccc2cnc3c(C(=O)c4cccs4)cnn3c2c1 [6b, 3-(Thien-2-ylcarbonyl)-8-methoxypyrazolo[1,5-a]quinazoline]

SMILES: COc1ccc2cnc3c(-c4ccsc4)cnn3c2c1 [5e, 3-(Thien-3-yl)-8-methoxypyrazolo[1,5-a]quinazoline]
voltage clamp: reduction of CGS 9895 potentiation (data not shown); >80% [3H]flu [2]: compounds 5d and 5e, which in the same test completely blocked or strongly reduced the potentiation of the GABAA receptor function

SMILES: COc1ccc2cnc3c(-c4cccs4)cnn3c2c1 [5d, 3-(Thien-2-yl)-8-methoxypyrazolo[1,5-a]quinazoline]
voltage clamp: block of CGS 9895 potentiation (data not shown); >80% [3H]flumaze [3]: compounds 5d and 5e, which in the same test completely blocked or strongly reduced the potentiation of the GABAA receptor function
